Structures are written as SMILES. Active and inactive are the calls of the source. The rule behind the calls is not given here.

For assay [1], the system named is MCF7. Description: Cytotoxicity against human MCF-7 assessed as reduction in cell viability by SRB assay.
In another assay the test system is MDA-MB-231. As to the kind of experiment: Cytotoxicity against human MDA-MB-231 cells assessed as reduction in cell viability at 10 uM by SRB assay. In kind it is functional, cell-based. In general terms: In SRB staining, fixed cells bind dye roughly in proportion to their protein.
Assay [2] has as its system SK-BR-3. Description: Cytotoxicity against human SKBr3 assessed as reduction in cell viability by SRB assay.
The target in assay [3] is Receptor tyrosine-protein kinase erbB-2 (Homo sapiens) (UniProt P04626). Description: Inhibition of HER2 (unknown origin) at 10 uM by ELISA. (In general: ELISA stands for enzyme-linked immunosorbent assay.)
Chain of Receptor tyrosine-protein kinase erbB-2 (Homo sapiens) (P04626 whole entry): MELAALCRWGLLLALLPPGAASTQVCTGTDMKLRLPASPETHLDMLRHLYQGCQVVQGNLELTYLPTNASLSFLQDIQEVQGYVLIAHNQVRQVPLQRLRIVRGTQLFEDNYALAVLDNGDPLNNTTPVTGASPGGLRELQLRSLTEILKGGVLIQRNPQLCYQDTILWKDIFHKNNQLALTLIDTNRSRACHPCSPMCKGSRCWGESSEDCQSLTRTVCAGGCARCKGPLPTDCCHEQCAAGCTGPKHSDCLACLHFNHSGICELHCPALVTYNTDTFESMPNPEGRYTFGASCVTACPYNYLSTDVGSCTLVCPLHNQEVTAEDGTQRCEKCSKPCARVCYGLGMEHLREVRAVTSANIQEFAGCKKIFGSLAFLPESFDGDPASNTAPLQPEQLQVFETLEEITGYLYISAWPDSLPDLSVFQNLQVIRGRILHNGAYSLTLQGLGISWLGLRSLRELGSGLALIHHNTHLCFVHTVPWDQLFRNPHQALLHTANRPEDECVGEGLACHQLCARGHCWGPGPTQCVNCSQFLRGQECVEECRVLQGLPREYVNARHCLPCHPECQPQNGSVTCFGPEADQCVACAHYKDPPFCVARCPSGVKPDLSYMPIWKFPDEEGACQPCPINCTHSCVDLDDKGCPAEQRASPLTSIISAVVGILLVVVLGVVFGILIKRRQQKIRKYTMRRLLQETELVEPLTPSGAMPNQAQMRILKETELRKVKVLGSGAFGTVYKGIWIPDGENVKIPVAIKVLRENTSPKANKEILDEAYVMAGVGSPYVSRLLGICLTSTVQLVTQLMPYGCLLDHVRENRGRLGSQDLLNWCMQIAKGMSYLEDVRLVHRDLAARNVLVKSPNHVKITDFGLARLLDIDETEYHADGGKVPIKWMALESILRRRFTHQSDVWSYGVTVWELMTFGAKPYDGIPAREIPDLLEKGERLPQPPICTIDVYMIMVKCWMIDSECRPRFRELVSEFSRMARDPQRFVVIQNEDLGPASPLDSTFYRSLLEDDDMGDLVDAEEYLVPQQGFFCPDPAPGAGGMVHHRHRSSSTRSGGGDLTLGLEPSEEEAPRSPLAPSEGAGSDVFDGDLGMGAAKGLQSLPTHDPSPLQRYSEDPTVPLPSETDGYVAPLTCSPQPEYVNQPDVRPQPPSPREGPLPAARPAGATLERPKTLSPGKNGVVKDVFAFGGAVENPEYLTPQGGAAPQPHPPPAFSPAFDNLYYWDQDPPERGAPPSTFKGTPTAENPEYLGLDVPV
The subject of assay [4] is MCF7. Description: Cytotoxicity against human MCF-7 assessed as reduction cell viability at 10 uM by SRB assay. In kind it is functional.
The test system of assay [5] is SK-BR-3. As to the kind of experiment: Cytotoxicity against human SKBr3 assessed as reduction cell viability at 10 uM by SRB assay. Format: functional.

With `S=C(Nc1ccc(Cl)cc1Cl)Nc1ncccc1Br`, the values for the IC50 in the assay with MCF7 [1] and with SK-BR-3 [2] were 1.3 µM and 0.73 µM, respectively. In addition, the inhibition entry with MDA-MB-231 was “inactive”. Further, in assay [3], the inhibition came to 87%. The inhibition at 10 µM was 72.4% with MCF7 [4] and 79.7% with SK-BR-3 [5].

Regarding `Cc1ccc(S(=O)(=O)NC(=O)Nc2ncccc2Br)cc1`, the inhibition result in the assay with MDA-MB-231 is “inactive”. Moreover, in the assay on MCF7 [4], the inhibition at 10 µM is 11.2%.

For `COc1ccccc1CNC(=O)NS(=O)(=O)c1ccccc1`, the inhibition entry in the assay with MDA-MB-231 is “inactive”. Besides, the inhibition at 10 µM with MCF7 [4] came to 10.3%.

For the compound `S=C(NCCc1ccccc1)Nc1ncccc1Br`, the IC50 with MCF7 [1] came to 16.2 µM; in the assay on SK-BR-3 [2] it was 1.11 µM. In addition, the inhibition entry with MDA-MB-231 is “inactive”. Besides, in assay [3], the inhibition turned out to be 84.7%. Also, the values for the inhibition at 10 µM with MCF7 [4] and with SK-BR-3 [5] were 63% and 78.8%, respectively.

`S=C(Nc1ccc(Cl)cc1Br)Nc1ncccc1Br`: the figures for the IC50 in the assay with MCF7 [1] and in the assay on SK-BR-3 [2] were 2.5 µM and 3.4 µM, respectively. Besides, the inhibition result in the assay with MDA-MB-231 is “inactive”. This compound also gave an inhibition in assay [3] of 82.6%. Further, the results for the inhibition at 10 µM with MCF7 [4] and in the assay on SK-BR-3 [5] were 64.1% and 74.8%, respectively.

For orientation: IC50 means the midpoint of a concentration-inhibition curve. The inhibition is the relative decrease from the control value, in per cent.

These data come from ChEMBL document CHEMBL4699607, “Design, synthesis, and computational validation of novel compounds selectively targeting HER2-expressing breast cancer” (Bioorg Med Chem Lett, 2020).
